# Results published in patent US20240156889A1, “A METHOD FOR REDUCING ANIMAL WEIGHT” (BEIJING WEHAND-BIO PHARMACEUTICAL CO., LTD, priority 2021, published 2024).
# Assay: Clinical Experiment 2: weight of type 2 diabetics, acarbose-controlled double-blind study
# Type: in vivo, human
# Details: SZ-A = tablets of Embodiment 1 extract, 50 mg total alkaloids each
# Excerpt: • 1. Objective • Effect of Ramulus Mori extract on reducing weight of diabetics. • 2. Experiment method • 2.1 Grouping • Random, double-blind and double-simulation, parallel control of acarbose tablets, multicenter, non-inferiority were adopted in the study design. A total of 600 patients with type 2 diabetes (aged 18 to 70 years old, 19 kg/m^2≤BMI≤30 kg/m^2, 7%≤HbAlC≤10%) and poor blood glucose control were included, and were randomly divided into a total alkaloid tablet group (SZ-A, N=360) and a acarbose (Glucobay®) group (CON, N=240). All signed informed consents. […] (1) From the Pt to the 24th week of administration, the height, weight and weight gain of each group were observed and recorded every day. […]
smiles,measurement,setting,value
C[C@H]1O[C@H](O[C@H]2[C@H](O)[C@@H](O)[C@@H](O[C@H]3[C@H](O)[C@@H](O)C(O)O[C@@H]3CO)O[C@@H]2CO)[C@H](O)[C@@H](O)[C@@H]1N[C@H]1C=C(CO)[C@@H](O)[C@H](O)[C@H]1O (some centres unmarked) [acarbose],average change of weight,"type 2 diabetics with BMI≥28 kg/m^2, after 8 weeks of administration",0.210 kg
same,average change of weight,"type 2 diabetics with BMI≥28 kg/m^2, after 24 weeks of administration",-0.182 kg
